Reference: US5607836A, “Methods of detecting compounds which bind to the P2U receptor” (The Curators of the University of Missouri, priority 1995, dated 1997)
Like-named read-outs stand apart in the source and are kept apart here.

What was measured:
[1] = system: 1321N1 human astrocytoma cells (uninfected or LSN-infected); assay: intracellular calcium by fura-2 fluorescence in uninfected or LSN-infected 1321N1 control cells; type: cell-based; settings: uninfected or LSN-infected controls
Experimental: Heteroloqous Expression. A retroviral vector-containing plasmid, pLHP2USN, was constructed by insertion of the cloned CF/T43 cDNA into the EcoRI and XhoI sites of pLXSN (A. Miller and G. Rosman, Biotechniques 7, 980 (1989)). An amphotrophic packaging cell line, PA317, was used to produce the LHP2USN retroviral vector and a control vector containing Neor only (LSN). Clonal human astrocytoma cells 1321N1, UNC strain, generously provided by T. K. Harden (UNC, Chapel Hill, N.C.), were plated at 150,000 cells per 60-mm dish and infected with LHP2USN or LSN (2 hr, 4 ug/ml Polybrene) and after 48 hr selected with 600 ug/ml G418 (Life Technologies, Inc., Gaithersburg, Md., U.S.A.). To assay for receptor activity, intracellular calcium concentration was measured in confluent cells on coverslips by fura-2 fluorescence using microspectrofluorimetry as previously described (S. Mason et al., Br. J. Pharmacol. 103, 1649 (1991)). Measurement of cell inositol phosphate formation was as described by H. Brown et al., Mol. Pharmacol. 40, 648 (1991), in accordance with known techniques.
A retrovirus expression system was employed to study the cloned CF/T43 HP2U cDNA in 1321N1 human astrocytoma cells. The effect of extracellular nuceotides on intracellular calcium, as measured by fura-2 fluorescence, was assessed in CF/T43 cells, uninfected 1321N1 cells, and 1321N1 cells infected with retroviral vector containing either the cloned HP2U or no insert (LSN).

[2] = biological target: histidine-tagged P2U receptor (P2HIS) (Mus musculus, UniProt P35383); assay: cytoplasmic free calcium in K562 cells stably expressing histidine-tagged P2U receptor (P2HIS); type: cell-based, murine
Experimental: (§1) Cytoplasmic Free Calcium Measurements. Cells were sedimented at 200×g for 5 min at room temperature and washed once with 10 ml of Hepes-bufferedsaline (20 mM Hepes, pH 7.4, 120 mM NaCl, 5 mM KCl, 1 mM MgCl2, and 1 mM CaCl2). Washed cells were suspended in Hepes-buffered saline at 5×10^5 cells/ml, and stored (for up to 4 h) at 37° C. The concentration of cytoplasmic free calcium, [Ca^2+ ]i, was measured by dual-excitation spectrofluorometric analysis of cells loaded with fura-2, a fluorescent probe for calcium.
Construction and Purification of the Histidine-tagged P2U Receptor (P2HIS). To produce P2HIS, 70 pmoles of the primers CGCACCATTGCCTTGGTAC (SEQ ID NO:3)(which contains a BstXI site) and […] (SEQ ID NO:4) (which contains an EcoRV site, stop codon, and the hexahistidine coding sequence) were incubated with 50 ng of pP2R, 20 nmoles of each dNTP, 1X reaction buffer (20 mM Tris-HCl, pH 8.2, 10 mM KCl, 6 mM (NH4)2 SO4, 1.5 mM MgCl2, and 0.1% Triton X-100), and H2 O to bring the reaction mixture to a 100 μl volume. […] The reaction mixture was overlayed with 50 μl of mineral oil and subjected to 30 PCR cycles (95° C. for 1.5 min, 55° C. for 1.5 min, and 72° C. for 2 min). The PCR product, a single 400 bp band, was subcloned into the unique BstXI-EcoRV restriction site of pP2R to generate pP2HIS. […]

[3] = biological target: T1, murine P2U receptor (Mus musculus, UniProt P35383); assay: cytoplasmic free calcium (fura-2) in K562 cells transfected with P2U receptor cDNA; type: cell-based; set-up: missing the first 6 nucleotides of the 5' untranslated region of the full length cDNA; expressed in transfected cells; host or cells: K562 human leukemia cells; settings: for increase in [Ca^2+ ]i: K562 cells stably or transiently transfected with P2U receptor cDNA; for time of return of [Ca^2+ ]i to the basal level / time to maximal [Ca^2+ ]i after nucleotide addition: K562 stable or transient transfectants; for effect of depletion of extracellular Ca^2+ by EGTA on nucleotide-mediated increases in [Ca^2+ ]i: stable transfectants
Text: Stable and Transient Transfections. To generate stable transfectants expressing the P2U receptor, K562 cells were transfected by electroporation (F. Toneguzzo et al., Mol. Cell. Biol. 6, 703 (1986)) with the neomycin-resistance plasmid pP2R1. pP2R1 is pRc/CMV containing a ~2.4 kb HindIII-NotI fragment of the P2U receptor cDNA, missing the first 6 nucleotides of the 5' untranslated region of the full length cDNA. control cells were stably transfected with pRc/CMV. Cells were sedimented at 200×g for 5 min at room temperature, rinsed once with phosphate-buffered saline (10 mM NaH2 PO4, pH 7.4, 120 mM NaCl, 5 mM KCl), and resuspended in phosphate-buffered saline at a final concentration of 4×10^7 cells/ml. The cells were chilled on ice for 10 min and then transferred in 0.5 ml aliquots to prechilled electroporation cuvettes. DNA (40 μg of pP2R1 linearized with PvuI) was added to the cell suspension, the cells were subjected to a single electrical pulse (1 kV, 25 μF) and the cuvettes were placed on ice. After 10 min, growth medium was added and the cells were incubated at 37° C. Fresh growth medium supplemented with 0.7 mg/ml G418 was added 48 h […], and the cells were incubated for 2 weeks to select for stable transfectants expressing neomycin resistance. Clonal cell lines were then isolated by transferring single cells to individual wells of a 96-well culture plate: each well contained 0.2 ml of conditioned growth medium filtered from K562 stock cultures, 0.2 ml of fresh growth medium, and 0.4 mg/ml G418. The clonal cell lines were cultured for three to four weeks in growth medium containing 0.4 mg/ml G418 and assayed for P2U receptor, the results shown are from one representative clonal cell line.
To generate transient transfectants, K562 cells were transfected as above with 40 μg unlinearized plasmid pCCM6×1 or pP2R (Lustig et al., supra 1993). Cells were incubated for 48 h at 37° C. in 100 mm culture dishes containing 12 ml of growth medium and assayed for P2U receptor activity.
as §1

[4] = biological target: T1, murine P2U receptor; set-up: host or cells: Xenopus oocytes; settings: Lustig et al. 1993, cited from earlier work; for EC50: Xenopus oocytes, read-out: EC50 in Xenopus oocytes expressing the P2U receptor; for activation of the cloned murine receptor: background

T1 sequence (P35383 whole entry): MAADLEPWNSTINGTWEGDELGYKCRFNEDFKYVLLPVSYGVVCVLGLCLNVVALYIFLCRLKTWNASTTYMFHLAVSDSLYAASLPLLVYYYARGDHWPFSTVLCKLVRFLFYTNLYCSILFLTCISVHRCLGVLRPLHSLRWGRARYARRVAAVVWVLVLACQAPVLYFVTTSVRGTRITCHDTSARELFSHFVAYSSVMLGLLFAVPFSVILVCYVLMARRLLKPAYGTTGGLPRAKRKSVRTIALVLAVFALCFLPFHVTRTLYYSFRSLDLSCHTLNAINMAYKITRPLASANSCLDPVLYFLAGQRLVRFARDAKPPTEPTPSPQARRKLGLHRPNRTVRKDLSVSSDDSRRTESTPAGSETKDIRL
histidine-tagged P2U receptor (P2HIS), sequence (P35383 whole entry): as above

**Q.** Which “[Ca^2+ ]i response of uninfected or LSN-infected 1321N1 cells” value [1] does the source give for `Nc1ncnc2c1ncn2[C@@H]1O[C@H](COP(=O)(O)OP(=O)(O)OP(=O)(O)O)[C@@H](O)[C@H]1O` [ATP] here?
**A.** the same result observed with UTP

**Q.** And the “[Ca^2+ ]i in K562 cells stably expressing P2HIS” value [2]?
**A.** increase in [Ca^2+ ]i

**Q.** And the EC50 [3]?
**A.** ~1400 nM

**Q.** What about the “increase in [Ca^2+ ]i” value [3] of the same molecule?
**A.** two-fold increase

**Q.** What about the “time of return of [Ca^2+ ]i to the basal level” value [3] of the same molecule?
**A.** ≤ 1 min

**Q.** And the “time to maximal [Ca^2+ ]i after nucleotide addition” value [3]?
**A.** ≤ 5 s

**Q.** And the “effect of depletion of extracellular Ca^2+ by EGTA on nucleotide-mediated increases in [Ca^2+ ]i” value [3]?
**A.** not affected

**Q.** What about the EC50 [4] of the same molecule?
**A.** ~1000 nM

**Q.** And the “activation of the cloned murine receptor” value [4]?
**A.** activated

**Q.** With `O=c1ccn([C@@H]2O[C@H](COP(=O)(O)OP(=O)(O)OP(=O)(O)O)[C@@H](O)[C@H]2O)c(=O)[nH]1` [UTP] as the molecule, how does the “[Ca^2+ ]i response of uninfected or LSN-infected 1321N1 cells” value [1] read?
**A.** no effect

**Q.** What about the “[Ca^2+ ]i in K562 cells stably expressing P2HIS” value [2] of the same molecule?
**A.** increase in [Ca^2+ ]i

**Q.** What about the EC50 [3] of the same molecule?
**A.** ~800 nM

**Q.** What about the “increase in [Ca^2+ ]i” value [3] of the same molecule?
**A.** two-fold increase

**Q.** What about the “time of return of [Ca^2+ ]i to the basal level” value [3] of the same molecule?
**A.** ≤ 1 min

**Q.** What about the “time to maximal [Ca^2+ ]i after nucleotide addition” value [3] of the same molecule?
**A.** ≤ 5 s

**Q.** What about the “effect of depletion of extracellular Ca^2+ by EGTA on nucleotide-mediated increases in [Ca^2+ ]i” value [3] of the same molecule?
**A.** not affected

**Q.** What about the EC50 [4] of the same molecule?
**A.** ~1000 nM

**Q.** What about the “activation of the cloned murine receptor” value [4] of the same molecule?
**A.** activated
